Measured values published in ChEMBL document CHEMBL2434907, “Synthesis and SAR studies of benzimidazolone derivatives as histamine H3-receptor antagonists” (Bioorg Med Chem Lett, 2013).

What was measured:
Cytochrome P450 2D6 = Cytochrome P450 2D6 (Homo sapiens, UniProt P10635); assay: Inhibition of CYP2D6 in human liver microsomes; type: ADME, Microsome
Cytochrome P450 3A4 = Cytochrome P450 3A4 (Homo sapiens, UniProt P08684); assay: Inhibition of CYP3A4 in human liver microsomes; type: ADME, Microsome
Sequence of Cytochrome P450 3A4 (P08684 whole entry): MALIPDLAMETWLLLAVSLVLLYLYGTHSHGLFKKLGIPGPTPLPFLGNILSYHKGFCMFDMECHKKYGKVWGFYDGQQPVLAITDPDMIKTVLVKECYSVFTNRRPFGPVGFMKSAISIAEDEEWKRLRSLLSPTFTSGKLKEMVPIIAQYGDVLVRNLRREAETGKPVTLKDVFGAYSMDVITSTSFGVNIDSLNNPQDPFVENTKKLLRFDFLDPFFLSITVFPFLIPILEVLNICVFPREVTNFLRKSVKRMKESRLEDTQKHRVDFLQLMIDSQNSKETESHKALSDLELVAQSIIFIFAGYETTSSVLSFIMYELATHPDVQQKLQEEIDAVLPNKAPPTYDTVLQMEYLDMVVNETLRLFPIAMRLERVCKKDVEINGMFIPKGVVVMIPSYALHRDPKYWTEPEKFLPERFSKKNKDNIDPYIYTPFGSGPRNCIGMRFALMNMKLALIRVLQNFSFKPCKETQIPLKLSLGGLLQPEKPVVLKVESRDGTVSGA

[1] = AUC in Sprague-Dawley rat at 10 mg/kg, po; type: ADME, organism-based; design: dose 10 mg/kg, route oral; conditions: plasma
[2] = Plasma concentration in Sprague-Dawley rat at 10 mg/kg, po after 6 hrs; type: ADME, organism-based; design: dose 10 mg/kg, route oral
Histamine H3 receptor = Histamine H3 receptor (Cavia porcellus, UniProt Q9JI35); assay: Displacement of [3H]-N-alpha-methyl histamine from histamine H3 receptor in guinea pig brain homogenates; type: tissue-based
Sequence of Histamine H3 receptor (Q9JI35 whole entry): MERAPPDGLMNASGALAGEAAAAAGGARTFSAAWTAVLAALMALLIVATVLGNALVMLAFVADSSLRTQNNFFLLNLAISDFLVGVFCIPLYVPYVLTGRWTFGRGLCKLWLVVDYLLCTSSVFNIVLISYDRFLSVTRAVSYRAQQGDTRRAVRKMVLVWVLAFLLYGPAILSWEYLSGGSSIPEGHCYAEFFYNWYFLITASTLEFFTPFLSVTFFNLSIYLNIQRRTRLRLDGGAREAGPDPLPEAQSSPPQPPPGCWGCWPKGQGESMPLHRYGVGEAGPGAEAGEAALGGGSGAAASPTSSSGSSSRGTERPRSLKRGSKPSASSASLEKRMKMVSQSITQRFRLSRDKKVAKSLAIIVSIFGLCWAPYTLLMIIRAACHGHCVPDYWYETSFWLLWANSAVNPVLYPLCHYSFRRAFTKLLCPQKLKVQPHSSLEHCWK

Sequence of Cytochrome P450 2D6 (P10635 whole entry): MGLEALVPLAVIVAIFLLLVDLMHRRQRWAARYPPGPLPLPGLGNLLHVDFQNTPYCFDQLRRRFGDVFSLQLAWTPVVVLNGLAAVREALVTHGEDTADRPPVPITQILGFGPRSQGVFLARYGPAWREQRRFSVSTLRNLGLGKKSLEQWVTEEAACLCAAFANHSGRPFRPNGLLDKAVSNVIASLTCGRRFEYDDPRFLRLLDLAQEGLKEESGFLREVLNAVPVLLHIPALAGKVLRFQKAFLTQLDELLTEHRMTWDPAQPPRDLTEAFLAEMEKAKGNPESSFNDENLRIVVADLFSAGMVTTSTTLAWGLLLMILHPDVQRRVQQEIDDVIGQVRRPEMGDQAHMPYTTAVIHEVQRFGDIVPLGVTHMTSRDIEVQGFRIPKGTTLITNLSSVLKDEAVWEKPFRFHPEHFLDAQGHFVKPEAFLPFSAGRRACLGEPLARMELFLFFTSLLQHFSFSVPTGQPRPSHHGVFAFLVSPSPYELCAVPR

Structure (SMILES)	IC50 (Cytochrome P450 2D6) [µM]	IC50 (Cytochrome P450 3A4) [µM]	AUC [1] [µM·h]	concentration at 6 h [2] [nM]	Ki (Histamine H3 receptor) [µM]
CC(c1ccc(-c2ccc(F)cc2)cc1)n1c(=O)n(C2CCN(C(=O)C3CCN(Cc4ccnc(N)c4)CC3)CC2)c2ccccc21 (stereo unspecified)					0.42
CC(c1ccc(Cl)c(Cl)c1)n1c(=O)n(C2CCN(C(=O)C3CCN(Cc4ccnc(N)c4)CC3)CC2)c2ccccc21 (stereo unspecified)					0.077
Nc1cc(CN2CCC(C(=O)N3CCC(n4c(=O)n(CCCC(F)(F)F)c5cc(F)ccc54)CC3)CC2)ccn1	> 30	30	4.1	510	
Nc1cc(CN2CCC(C(=O)N3CCC(n4c(=O)n(Cc5ccc(Cl)cc5)c5ccccc54)CC3)CC2)ccn1					0.012
COCCn1c(=O)n(C2CCN(C(=O)C3CCN(Cc4ccnc(N)c4)CC3)CC2)c2ccccc21	> 30	> 30	0.1		
Nc1cc(CN2CCC(C(=O)N3CCC(n4c(=O)n(CCN5CCOCC5)c5ccccc54)CC3)CC2)ccn1	> 30	30			
CC(C)Cn1c(=O)n(C2CCN(C(=O)C3CCN(Cc4ccnc(N)c4)CC3)CC2)c2ccc(F)cc21	> 30	> 30			
Nc1cc(CN2CCC(C(=O)N3CCC(n4c(=O)n(-c5cnccn5)c5cc(F)ccc54)CC3)CC2)ccn1	> 30	> 30	3.7	500	0.0005
Nc1cc(CN2CCC(C(=O)N3CCC(n4c(=O)n(Cc5ccccc5)c5cc(F)ccc54)CC3)CC2)ccn1					0.006
Nc1cc(CN2CCC(C(=O)N3CCC(n4c(=O)n(-c5ncccn5)c5cc(F)ccc54)CC3)CC2)ccn1	> 30	> 30			
Nc1cc(CN2CCC(C(=O)N3CCC(n4c(=O)n(CC5CC5)c5cc(F)ccc54)CC3)CC2)ccn1	> 30	30	3.5	260	
Nc1cc(CN2CCC(C(=O)N3CCC(n4c(=O)n(CCN5CCOCC5)c5cc(F)ccc54)CC3)CC2)ccn1	> 30	> 30			0.0023
Nc1cc(CN2CCC(C(=O)N3CCC(n4c(=O)n(-c5ccccn5)c5cc(F)ccc54)CC3)CC2)ccn1	> 30	> 30	10.9	1200	

Other lines, results leading:

IC50 (Cytochrome P450 2D6) [µM]	IC50 (Cytochrome P450 3A4) [µM]	AUC [1] [µM·h]	concentration at 6 h [2] [nM]	Ki (Histamine H3 receptor) [µM]	Structure (SMILES)
> 30	> 30				Nc1cc(CN2CCC(C(=O)N3CCC(n4c(=O)n(CCCC(F)(F)F)c5ccccc54)CC3)CC2)ccn1
> 30	> 30				Nc1cc(CN2CCC(C(=O)N3CCC(n4c(=O)n(CC5CCCCC5)c5cc(F)ccc54)CC3)CC2)ccn1
> 30	> 30	12.9	1850		Nc1cc(CN2CCC(C(=O)N3CCC(n4c(=O)n(-c5cc(F)cc(F)c5)c5cc(F)ccc54)CC3)CC2)ccn1
> 30	> 30	5.1	680		Nc1cc(CN2CCC(C(=O)N3CCC(n4c(=O)n(-c5ccc(F)c(F)c5)c5cc(F)ccc54)CC3)CC2)ccn1
> 30	> 30			0.0006	Nc1cc(CN2CCC(C(=O)N3CCC(n4c(=O)[nH]c5ccccc54)CC3)CC2)ccn1
> 30	> 30	1.2	130		Nc1cc(CN2CCC(C(=O)N3CCC(n4c(=O)n(CC(F)(F)F)c5cc(F)ccc54)CC3)CC2)ccn1
> 30	22	1.8	200		Nc1cc(CN2CCC(C(=O)N3CCC(n4c(=O)n(C5CCCC5)c5cc(F)ccc54)CC3)CC2)ccn1
